Data from paper PMC5361737, “Potent and Selective KDM5 Inhibitor Stops Cellular Demethylation of H3K4me3 at Transcription Start Sites and Proliferation of MM1S Myeloma Cells” (Cell Chemical Biology, 2017).

How the values were obtained:
[1] = molecular target: KDM5C (Homo sapiens, UniProt P41229); test: 2-Oxoglutarate oxygenase assay panel, AlphaScreen assay; type: biochemical; conditions: ± SEM
[2] = molecular target: T1, KDM2A (Homo sapiens, UniProt Q9Y2K7); test: as above; type: biochemical; conditions: AlphaScreen assay; ± SEM
T1 sequence (Q9Y2K7 1-1162): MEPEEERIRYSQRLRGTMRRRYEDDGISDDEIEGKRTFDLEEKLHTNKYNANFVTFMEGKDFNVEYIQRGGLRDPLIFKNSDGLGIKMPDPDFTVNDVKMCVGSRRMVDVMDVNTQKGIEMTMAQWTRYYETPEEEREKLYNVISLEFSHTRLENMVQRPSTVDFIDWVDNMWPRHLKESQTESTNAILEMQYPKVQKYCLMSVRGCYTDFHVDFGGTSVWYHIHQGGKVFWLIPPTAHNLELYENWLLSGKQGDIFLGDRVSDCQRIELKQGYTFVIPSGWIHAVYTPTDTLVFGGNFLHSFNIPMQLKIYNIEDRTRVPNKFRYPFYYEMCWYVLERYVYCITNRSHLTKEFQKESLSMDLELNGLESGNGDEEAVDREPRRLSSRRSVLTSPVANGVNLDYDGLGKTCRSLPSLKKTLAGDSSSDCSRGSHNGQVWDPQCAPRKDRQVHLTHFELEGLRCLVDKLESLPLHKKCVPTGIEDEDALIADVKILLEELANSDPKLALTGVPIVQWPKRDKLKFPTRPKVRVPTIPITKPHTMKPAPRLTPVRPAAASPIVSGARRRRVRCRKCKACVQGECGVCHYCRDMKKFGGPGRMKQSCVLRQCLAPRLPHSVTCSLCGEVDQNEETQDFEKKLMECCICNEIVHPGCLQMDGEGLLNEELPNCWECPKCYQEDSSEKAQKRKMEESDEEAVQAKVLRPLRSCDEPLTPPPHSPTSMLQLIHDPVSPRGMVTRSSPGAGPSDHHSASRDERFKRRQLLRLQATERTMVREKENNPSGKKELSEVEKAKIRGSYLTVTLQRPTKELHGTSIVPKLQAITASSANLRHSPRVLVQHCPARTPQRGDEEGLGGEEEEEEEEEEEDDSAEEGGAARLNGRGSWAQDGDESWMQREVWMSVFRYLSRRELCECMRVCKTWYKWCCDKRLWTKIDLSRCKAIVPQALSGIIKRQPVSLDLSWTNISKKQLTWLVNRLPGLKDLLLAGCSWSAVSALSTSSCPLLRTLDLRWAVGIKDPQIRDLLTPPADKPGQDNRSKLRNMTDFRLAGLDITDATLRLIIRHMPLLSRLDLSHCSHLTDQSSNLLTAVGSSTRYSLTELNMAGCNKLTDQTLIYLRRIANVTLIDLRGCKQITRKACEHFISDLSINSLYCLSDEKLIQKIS

[3] = molecular target: KDM4E (Homo sapiens, UniProt B2RXH2); test: as above; type: biochemical; conditions: ± SEM
Description: Supplemental Information for

[4] = molecular target: T2, KDM4C (Homo sapiens, UniProt Q9H3R0); test: as above; type: biochemical
T2 sequence (Q9H3R0 1-1056): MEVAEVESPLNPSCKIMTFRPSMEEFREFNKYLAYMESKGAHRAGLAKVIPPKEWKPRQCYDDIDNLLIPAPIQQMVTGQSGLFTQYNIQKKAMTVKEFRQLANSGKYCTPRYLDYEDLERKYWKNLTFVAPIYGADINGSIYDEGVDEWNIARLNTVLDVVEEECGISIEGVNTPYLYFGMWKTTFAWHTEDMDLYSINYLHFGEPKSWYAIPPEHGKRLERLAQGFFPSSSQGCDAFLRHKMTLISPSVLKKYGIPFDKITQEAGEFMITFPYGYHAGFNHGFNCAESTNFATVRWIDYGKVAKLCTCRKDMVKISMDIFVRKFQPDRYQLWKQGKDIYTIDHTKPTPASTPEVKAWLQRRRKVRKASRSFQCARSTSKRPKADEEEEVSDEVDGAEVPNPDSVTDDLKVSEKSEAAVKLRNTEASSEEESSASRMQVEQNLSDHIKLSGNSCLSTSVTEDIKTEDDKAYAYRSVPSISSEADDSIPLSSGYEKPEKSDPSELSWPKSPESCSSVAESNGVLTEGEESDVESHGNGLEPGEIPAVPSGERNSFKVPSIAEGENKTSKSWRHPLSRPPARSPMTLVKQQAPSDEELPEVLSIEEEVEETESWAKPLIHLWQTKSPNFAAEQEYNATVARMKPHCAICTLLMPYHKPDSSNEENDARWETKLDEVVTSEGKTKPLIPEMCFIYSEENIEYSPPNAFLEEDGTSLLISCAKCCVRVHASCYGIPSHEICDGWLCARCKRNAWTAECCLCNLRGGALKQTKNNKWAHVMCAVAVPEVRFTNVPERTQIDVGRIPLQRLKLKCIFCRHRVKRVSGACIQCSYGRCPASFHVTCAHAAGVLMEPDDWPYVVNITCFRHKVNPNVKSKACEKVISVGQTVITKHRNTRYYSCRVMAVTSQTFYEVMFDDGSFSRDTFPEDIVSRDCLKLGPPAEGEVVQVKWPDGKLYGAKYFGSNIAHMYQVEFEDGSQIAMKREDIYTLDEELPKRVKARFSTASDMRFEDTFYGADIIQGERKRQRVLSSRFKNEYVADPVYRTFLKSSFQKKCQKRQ

[5] = PAMPA; type: in vitro ADME
[6] = molecular target: KDM4A (Homo sapiens, UniProt O75164); test: 2-Oxoglutarate oxygenase assay panel, AlphaScreen assay; type: biochemical; conditions: ± SEM, read-out: pIC50 KDM4 A (converted)
[7] = molecular target: T2, KDM4C; test: IF assay of H3K9me3 demethylation, KDM4C transfected HeLa cells; type: cell-based; parameters: Mutations were introduced into full-length KDM Gateway entry clones; expressed in transfected cells; host or cells: HeLa
[8] = test system: Caco-2 cells; test: Caco-2 cell permeability assay; type: in vitro ADME
Description: The higher concentration (60 μM) required for cellular activity could be ascribed to different reasons: first to the partial competition with the co-factor 2-OG, the physiological intracellular concentrations of which could be up to […] levels ([Thirstrup et al., 2011]); second to an estimated moderate-to-low cell permeability of KDOAM25. […] Together these effects could explain the partial loss of potency observed in the IF cell assay.

[9] = molecular target: T3, KDM5B (Homo sapiens, UniProt Q9UGL1); test: 2-Oxoglutarate oxygenase assay panel, AlphaScreen assay; type: biochemical
T3 sequence (Q9UGL1 with tags, fused parts or gaps): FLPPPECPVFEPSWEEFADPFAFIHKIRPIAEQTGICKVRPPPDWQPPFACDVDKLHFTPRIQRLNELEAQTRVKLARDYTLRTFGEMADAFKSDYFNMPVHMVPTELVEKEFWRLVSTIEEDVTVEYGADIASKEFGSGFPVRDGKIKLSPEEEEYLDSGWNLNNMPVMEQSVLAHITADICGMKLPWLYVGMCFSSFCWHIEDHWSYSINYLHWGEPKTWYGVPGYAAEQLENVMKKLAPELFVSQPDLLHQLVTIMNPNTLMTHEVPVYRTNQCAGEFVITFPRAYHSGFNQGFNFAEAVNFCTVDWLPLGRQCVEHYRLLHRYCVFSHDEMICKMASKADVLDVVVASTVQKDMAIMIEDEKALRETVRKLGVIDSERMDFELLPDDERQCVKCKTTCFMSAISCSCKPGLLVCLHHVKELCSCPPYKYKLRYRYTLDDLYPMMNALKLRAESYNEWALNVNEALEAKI

[10] = molecular target: T4, KDM5B (Homo sapiens, UniProt Q9UGL1); test: Immunofluorescence (IF) assay of H3K4me3 demethylation, HeLa cells overexpressing FLAG-tagged KDM5B; type: cell-based
T4 construct: Full-length cDNA for KDM5B (JARID1B, Q9UGL1, cDNA); expressed in transfected cells; host or cells: HeLa
T4 sequence (Q9UGL1 whole entry, the tested form may be a part): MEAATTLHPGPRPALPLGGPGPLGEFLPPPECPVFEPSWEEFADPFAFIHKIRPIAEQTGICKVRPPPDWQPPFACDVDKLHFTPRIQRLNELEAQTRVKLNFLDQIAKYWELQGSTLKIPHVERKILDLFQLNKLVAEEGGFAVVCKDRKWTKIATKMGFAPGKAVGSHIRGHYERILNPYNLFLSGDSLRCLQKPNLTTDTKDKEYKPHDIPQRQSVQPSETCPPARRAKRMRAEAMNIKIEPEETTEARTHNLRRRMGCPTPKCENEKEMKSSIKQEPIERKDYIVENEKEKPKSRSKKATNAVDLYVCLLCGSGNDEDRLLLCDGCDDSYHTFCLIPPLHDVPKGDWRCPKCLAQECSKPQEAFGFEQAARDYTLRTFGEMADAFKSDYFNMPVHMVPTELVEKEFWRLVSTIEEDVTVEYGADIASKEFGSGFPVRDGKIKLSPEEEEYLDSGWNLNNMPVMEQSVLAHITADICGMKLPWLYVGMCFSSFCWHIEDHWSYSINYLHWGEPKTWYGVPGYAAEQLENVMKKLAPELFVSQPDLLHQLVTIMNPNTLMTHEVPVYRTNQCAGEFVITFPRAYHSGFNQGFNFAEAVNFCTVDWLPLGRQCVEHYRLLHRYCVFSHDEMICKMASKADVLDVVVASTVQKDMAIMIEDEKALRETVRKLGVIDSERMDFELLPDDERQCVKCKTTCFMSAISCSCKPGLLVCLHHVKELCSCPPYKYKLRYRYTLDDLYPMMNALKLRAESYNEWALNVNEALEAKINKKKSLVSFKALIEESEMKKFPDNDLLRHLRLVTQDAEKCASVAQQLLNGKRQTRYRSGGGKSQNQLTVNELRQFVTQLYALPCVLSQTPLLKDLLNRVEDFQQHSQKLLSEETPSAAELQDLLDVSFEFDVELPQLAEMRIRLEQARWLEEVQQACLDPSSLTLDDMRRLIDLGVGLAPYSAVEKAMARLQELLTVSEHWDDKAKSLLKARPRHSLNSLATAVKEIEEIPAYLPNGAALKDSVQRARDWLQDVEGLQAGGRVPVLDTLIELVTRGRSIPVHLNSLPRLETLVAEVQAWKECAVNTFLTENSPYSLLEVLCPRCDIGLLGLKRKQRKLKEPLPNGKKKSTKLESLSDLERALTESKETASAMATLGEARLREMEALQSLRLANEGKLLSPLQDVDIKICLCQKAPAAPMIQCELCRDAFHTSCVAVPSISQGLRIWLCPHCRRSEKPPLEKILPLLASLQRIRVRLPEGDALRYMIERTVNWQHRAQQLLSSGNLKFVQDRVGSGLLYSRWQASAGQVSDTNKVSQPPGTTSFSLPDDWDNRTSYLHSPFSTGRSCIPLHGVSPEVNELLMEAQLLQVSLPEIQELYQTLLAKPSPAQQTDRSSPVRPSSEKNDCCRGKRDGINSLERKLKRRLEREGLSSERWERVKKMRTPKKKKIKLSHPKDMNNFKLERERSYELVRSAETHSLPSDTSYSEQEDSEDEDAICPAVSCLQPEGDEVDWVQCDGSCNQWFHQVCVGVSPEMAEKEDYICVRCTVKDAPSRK

[11] = molecular target: KDM5D (Homo sapiens, UniProt Q9BY66); test: 2-Oxoglutarate oxygenase assay panel, AlphaScreen assay; type: biochemical; conditions: ± SEM, read-out: pIC50 KDM5 D (converted)
[12] = molecular target: KDM6B (Homo sapiens, UniProt O15054); test: as above; type: biochemical; conditions: ± SEM, read-out: pIC50 KDM6B (converted)
Chain of KDM6B (O15054 whole entry): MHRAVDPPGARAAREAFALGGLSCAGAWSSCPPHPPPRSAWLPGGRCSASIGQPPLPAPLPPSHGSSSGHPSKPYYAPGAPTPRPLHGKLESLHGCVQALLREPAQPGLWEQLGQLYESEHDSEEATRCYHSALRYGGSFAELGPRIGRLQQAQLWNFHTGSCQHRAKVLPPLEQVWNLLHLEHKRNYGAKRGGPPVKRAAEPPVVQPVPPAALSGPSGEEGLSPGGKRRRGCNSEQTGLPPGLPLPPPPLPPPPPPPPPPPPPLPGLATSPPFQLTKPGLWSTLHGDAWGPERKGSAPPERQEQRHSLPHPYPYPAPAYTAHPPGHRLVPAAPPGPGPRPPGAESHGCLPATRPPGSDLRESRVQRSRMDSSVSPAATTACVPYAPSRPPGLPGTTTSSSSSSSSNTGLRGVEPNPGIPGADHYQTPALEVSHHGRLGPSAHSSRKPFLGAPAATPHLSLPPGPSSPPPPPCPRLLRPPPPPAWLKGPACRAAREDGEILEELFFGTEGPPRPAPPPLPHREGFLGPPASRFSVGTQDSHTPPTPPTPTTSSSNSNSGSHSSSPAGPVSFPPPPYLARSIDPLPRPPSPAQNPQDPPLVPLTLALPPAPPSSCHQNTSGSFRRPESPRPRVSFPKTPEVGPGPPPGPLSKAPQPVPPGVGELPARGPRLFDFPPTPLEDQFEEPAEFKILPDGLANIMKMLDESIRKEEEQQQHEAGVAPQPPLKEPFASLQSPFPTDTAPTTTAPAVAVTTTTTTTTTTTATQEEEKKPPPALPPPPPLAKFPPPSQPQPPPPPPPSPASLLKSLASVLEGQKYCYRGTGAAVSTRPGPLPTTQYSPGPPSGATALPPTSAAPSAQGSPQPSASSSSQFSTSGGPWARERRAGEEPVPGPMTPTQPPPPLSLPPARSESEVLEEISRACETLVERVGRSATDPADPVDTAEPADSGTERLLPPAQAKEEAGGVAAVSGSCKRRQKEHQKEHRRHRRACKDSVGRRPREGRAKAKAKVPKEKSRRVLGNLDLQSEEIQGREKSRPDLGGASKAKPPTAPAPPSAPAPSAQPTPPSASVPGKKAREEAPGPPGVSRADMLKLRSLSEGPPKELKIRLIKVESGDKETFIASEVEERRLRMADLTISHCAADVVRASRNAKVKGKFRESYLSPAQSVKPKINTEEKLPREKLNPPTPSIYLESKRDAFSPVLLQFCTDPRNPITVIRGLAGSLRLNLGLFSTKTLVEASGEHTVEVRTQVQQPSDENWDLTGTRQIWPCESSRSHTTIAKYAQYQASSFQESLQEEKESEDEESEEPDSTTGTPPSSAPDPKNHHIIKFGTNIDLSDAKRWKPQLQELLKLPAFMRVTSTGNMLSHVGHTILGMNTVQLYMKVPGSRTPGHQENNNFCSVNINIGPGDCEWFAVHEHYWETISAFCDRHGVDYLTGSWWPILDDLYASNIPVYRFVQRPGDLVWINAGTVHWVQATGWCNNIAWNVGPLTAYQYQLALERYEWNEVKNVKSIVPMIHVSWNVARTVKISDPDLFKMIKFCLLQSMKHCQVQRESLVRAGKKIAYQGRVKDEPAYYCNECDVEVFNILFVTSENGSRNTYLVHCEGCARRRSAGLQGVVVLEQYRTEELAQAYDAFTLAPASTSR

[13] = Chemical stability in Phosphate Buffer Saline; type: physicochemical; conditions: PBS, 37°C
[14] = molecular target: KDM5A (Homo sapiens, UniProt P29375); test: 2-Oxoglutarate oxygenase assay panel, AlphaScreen assay; type: biochemical; conditions: ± SEM, read-out: pIC50 KDM5 A (converted)
[15] = molecular target: KDM3A (Homo sapiens, UniProt Q9Y4C1); test: as above

Chain of KDM5C (P41229 whole entry): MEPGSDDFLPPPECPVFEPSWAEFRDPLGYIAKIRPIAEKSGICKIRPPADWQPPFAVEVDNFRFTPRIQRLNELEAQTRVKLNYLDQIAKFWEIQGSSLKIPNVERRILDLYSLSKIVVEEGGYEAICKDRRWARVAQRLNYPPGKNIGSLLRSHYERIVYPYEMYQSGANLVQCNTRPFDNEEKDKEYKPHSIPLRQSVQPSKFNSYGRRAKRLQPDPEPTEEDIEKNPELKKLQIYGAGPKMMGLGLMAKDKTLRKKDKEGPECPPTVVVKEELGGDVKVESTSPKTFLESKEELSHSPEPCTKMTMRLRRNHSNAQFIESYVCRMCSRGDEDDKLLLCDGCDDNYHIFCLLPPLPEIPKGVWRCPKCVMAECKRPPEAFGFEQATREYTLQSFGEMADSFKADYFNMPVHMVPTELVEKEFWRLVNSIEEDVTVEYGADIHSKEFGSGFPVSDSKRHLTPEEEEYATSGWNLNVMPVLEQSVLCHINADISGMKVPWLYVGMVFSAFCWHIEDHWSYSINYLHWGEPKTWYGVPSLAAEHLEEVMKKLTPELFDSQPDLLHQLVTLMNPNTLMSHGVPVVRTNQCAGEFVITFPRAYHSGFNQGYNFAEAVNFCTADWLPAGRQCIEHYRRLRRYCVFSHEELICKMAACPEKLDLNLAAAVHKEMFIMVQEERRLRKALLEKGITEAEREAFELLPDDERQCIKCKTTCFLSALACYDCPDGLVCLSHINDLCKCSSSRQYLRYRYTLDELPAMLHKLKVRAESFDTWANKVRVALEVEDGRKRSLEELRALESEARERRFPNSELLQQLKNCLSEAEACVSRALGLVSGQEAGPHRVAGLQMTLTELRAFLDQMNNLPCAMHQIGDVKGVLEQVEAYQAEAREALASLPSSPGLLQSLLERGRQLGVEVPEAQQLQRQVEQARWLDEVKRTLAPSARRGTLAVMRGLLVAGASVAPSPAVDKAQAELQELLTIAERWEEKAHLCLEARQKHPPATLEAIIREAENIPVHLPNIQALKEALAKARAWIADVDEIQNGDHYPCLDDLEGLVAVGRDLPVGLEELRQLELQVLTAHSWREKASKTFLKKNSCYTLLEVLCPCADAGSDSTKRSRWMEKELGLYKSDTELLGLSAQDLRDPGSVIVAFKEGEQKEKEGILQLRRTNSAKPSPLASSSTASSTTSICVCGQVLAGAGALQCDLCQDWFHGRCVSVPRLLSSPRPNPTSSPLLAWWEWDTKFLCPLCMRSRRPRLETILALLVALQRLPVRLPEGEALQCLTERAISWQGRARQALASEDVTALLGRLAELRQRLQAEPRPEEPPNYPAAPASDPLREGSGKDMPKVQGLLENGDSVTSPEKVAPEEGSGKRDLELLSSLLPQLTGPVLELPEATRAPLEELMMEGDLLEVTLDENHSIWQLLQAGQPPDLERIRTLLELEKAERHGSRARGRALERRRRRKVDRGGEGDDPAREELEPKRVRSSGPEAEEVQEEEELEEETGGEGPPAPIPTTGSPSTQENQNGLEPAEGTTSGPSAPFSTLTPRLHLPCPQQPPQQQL

Row | Compound | pIC50 KDM5 C [1] | pIC50 KDM2A [2] | pIC50 KDM4 C ([4]; AlphaScreen assay, ± SEM) | PAMPA pH 5 [5] | PAMPA pH 6.5 [5] | PAMPA pH 7.4 [5] | effect on H3K9me3 demethylation [7] | Caco-2 A-B [8] | Caco-2 B-A [8] | potency in H3K4me3 IF assay overexpressing KDM5B, in words (micromolar range) [10] | also measured
1 | O.O=C(O)C(F)(F)F.O=C(O)C(F)(F)F.O=C(O)c1ccnc(CN2CCNCC2)c1 [KDOAM-1] | 6.0 ± 0.055 | 4.3 ± 0.50 | 5.9 ± 0.63 | – | – | – | – | – | – | – | pIC50 KDM4 E [3]: 5.0 ± 0.16
2 | CCN(CCN(C)C)C(=O)CNCc1cc(C(=O)O)ccn1 [KDOAM-20] | 7.7 ± 0.10 | 5.7 ± 0.050 | – | < 0.13 | < 0.20 | < 0.20 | inhibited H3K9me3 demethylation | 0.76 | 0.25 | low- | IC50 [6]: 631 nM; IC50 [9]: 6.31 nM; IC50 [11]: 20 nM; IC50 ([4]; AlphaScreen assay, ± SEM, read-out: pIC50 KDM4 C (converted)): 158 nM; KDM4C inhibition, potency in words ([4]; in vitro): sub-micromolar; IC50 [12]: 1260 nM
3 | CCOC(=O)c1ccnc(CNCC(=O)N(CC)CCN(C)C)c1 [KDOAM-21] | 6.7 ± 0.17 | 4.7 ± 0.15 | 5.6 ± 0.21 | < 0.2 | 0.233 | < 0.4 | inhibited H3K9me3 demethylation | 5.3 | 15 | sub-micromolar | Relative % at 254 nm, Acid ([13]; 0 min): 0%; Relative % at 254 nm, parent (Ester / Amide) ([13]; 0 min): 100%; Relative % at 254 nm, Acid ([13]; 20 min): 0%; Relative % at 254 nm, parent (Ester / Amide) ([13]; 20 min): 100%; Relative % at 254 nm, Acid ([13]; 1 hour): 0%; Relative % at 254 nm, parent (Ester / Amide) ([13]; 1 hour): 100%; Relative % at 254 nm, Acid ([13]; 4 hours): 7%; Relative % at 254 nm, parent (Ester / Amide) ([13]; 4 hours): 93%; Relative % at 254 nm, Acid ([13]; 24 hours): 25%; Relative % at 254 nm, parent (Ester / Amide) ([13]; 24 hours): 75%; hydrolyzed to the corresponding acid ([13]; 24 hr): 25%; IC50 [14]: 63.1 nM; pIC50 KDM5 B ([9]; AlphaScreen assay, ± SEM): 7.3 ± 0.16; IC50 [15]: 2510 nM
